Source: patent publication US20200216439A1, “HETERO-1,5,6,7-TETRAHYDRO-4H-INDOL-4-ONES” (BAYER PHARMA AKTIENGESELLSCHAFT, priority 2015, published 2020)

What follows are compounds tested against T1, catalytic domain of human Bub1 (amino acids 704-1085) (Homo sapiens, UniProt O43683) (assay: Bub1 kinase assay (TR-FRET)). Conditions: TR-FRET; ATP 10 μM, peptide substrate 1 μM; 60 min at 22° C.; average or median if tested more than once; read-out: Inhibition of Bub1 kinase IC50.
T1 construct: catalytic domain of human Bub1 (amino acids 704-1085); His6 (N); made in house; host or cells: Hi5 insect cells
Assay type: biochemical
In short: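 Human Bub1 catalytic domain (704-1085, His6-tagged, Hi5-expressed, ~200 ng/mL) preincubated with compound 15 min at 22 °C, then reacted 60 min at 22 °C with 10 μM ATP and 1 μM biotinylated peptide substrate, pH 7.5. EDTA stop; TR-FRET 665/620 ratio; IC50 from 4-parameter fit, 11 concentrations in duplicate.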

T1 sequence (O43683 704-1085): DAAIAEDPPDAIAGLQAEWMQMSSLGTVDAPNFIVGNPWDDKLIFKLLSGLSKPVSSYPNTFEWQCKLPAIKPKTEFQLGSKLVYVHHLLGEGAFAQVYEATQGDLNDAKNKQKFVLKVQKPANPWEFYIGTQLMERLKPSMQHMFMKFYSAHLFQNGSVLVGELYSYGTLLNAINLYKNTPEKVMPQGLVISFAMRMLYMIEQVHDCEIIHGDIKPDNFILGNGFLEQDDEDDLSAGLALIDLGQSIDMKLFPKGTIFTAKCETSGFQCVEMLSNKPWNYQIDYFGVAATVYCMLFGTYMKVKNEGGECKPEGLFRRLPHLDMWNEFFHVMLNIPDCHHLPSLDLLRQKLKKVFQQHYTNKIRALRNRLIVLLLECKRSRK

Which IC50 does the source give for `CC(C)(C)OC(=O)N1CC(=O)c2c([nH]c(-c3ccnc(NC(=O)[C@@H]4C[C@@H]4F)c3)c2Nc2ccccc2)C1` (relative stereo) [Example 120, tert-Butyl 2-[2-({[rel-(1S,2S)-2-fluorocyclopropyl]carbonyl}amino)pyridin-4-yl]-4-oxo-3-(phenylamino)-1,4,5,7-tetrahydro-6H-pyrrolo[2,3-c]pyridine-6-carboxylate] here?
The IC50 was 0.009 µM.

For `CCC(=O)N1CC(=O)c2c([nH]c(-c3ccnc(NC(=O)[C@@H]4C[C@@H]4F)c3)c2Nc2ccccc2)C1` [Example 198, (1S,2S)-2-Fluoro-N-4-[4-oxo-3-(phenylamino)-6-propanoyl-4,5,6,7-tetrahydro-1H-pyrrolo[2,3-c]pyridin-2-yl]pyridin-2-ylcyclopropanecarboxamide], which IC50 is on record?
The IC50 was 0.003 µM.

`CS(=O)(=O)N1CC(=O)c2c([nH]c(-c3ccnc(NC(=O)C4(F)CC4)c3)c2Nc2ccccc2)C1` [Example 150, N-{4-[3-Anilino-6(methylsulfonyl)-4-4-oxo-4,5,6,7-tetrahydro-1H-pyrrolo[2,3-c]pyridin-2-yl]pyridin-2-yl}-1-fluorocyclopropanecarboxamide] was tested. Which IC50 did it give?
The IC50 was 0.005 µM.

With `O=C1CN(S(=O)(=O)CCO)Cc2[nH]c(-c3ccncc3)c(Nc3ccccc3)c21` [Example 123, 3-Anilino-6-[(2-hydroxyethyl)sulfonyl]-2-(pyridin-4-yl)-1,5,6,7-tetrahydro-4H-pyrrolo[2,3-c]pyridin-4-one] as the compound, how does the IC50 read?
Its IC50 is 0.003 µM.

How did the IC50 turn out when `CC(=O)Nc1cc(-c2[nH]c3c(c2Nc2ccccc2)C(=O)CN(C(=O)c2cnsc2)C3)ccn1` [Example 193, N-{4-[3-Anilino-4-oxo-6-(1,2-thiazol-4-ylcarbonyl)-4,5,6,7-tetrahydro-1H-pyrrolo[2,3-c]pyridin-2-yl]pyridin-2-yl}acetamide] was run?
Its IC50 is 0.019 µM.

Which IC50 does the source give for `COc1cnccc1-c1[nH]c2c(c1Nc1ccccc1)C(=O)CN(S(=O)(=O)C(F)F)C2` [Example 110, 6-[(Difluoromethyl)sulfonyl]-2-(3-methoxypyridin-4-yl)-3-(phenylamino)-1,5,6,7-tetrahydro-4H-pyrrolo[2,3-c]pyridin-4-one] here?
Its IC50 is 0.006 µM.

With `CN(C)S(=O)(=O)N1CC(=O)c2c([nH]c(-c3ccncc3OCC(F)F)c2Nc2ccccc2)C1` [Example 281, 3-Anilino-2-[3-(2,2-difluoroethoxy)pyridin-4-yl]-N,N-dimethyl-4-oxo-1,4,5,7-tetrahydro-6H-pyrrolo[2,3-c]pyridine-6-sulfonamide] as the compound, how does the IC50 read?
The IC50 was 0.01 µM.

How did the IC50 turn out when `CN1CCN(C(=O)N2CC(=O)c3c([nH]c(-c4ccncc4OCC(F)F)c3Nc3ccccc3)C2)CC1` [Example 240, 2-[3-(2,2-Difluoroethoxy)pyridin-4-yl]-6-[(4-methylpiperazin-1-yl)carbonyl]-3-(phenylamino)-1,5,6,7-tetrahydro-4H-pyrrolo[2,3-c]pyridin-4-one] was run?
Its IC50 is 0.066 µM.

For `Cc1cnccc1-c1[nH]c2c(c1Nc1ccccc1)C(=O)CN(C(=O)OC(C)(C)C)C2` [Example 99, tert-Butyl 2-(3-methylpyridin-4-yl)-4-oxo-3-(phenylamino)-1,4,5,7-tetrahydro-6H-pyrrolo[2,3-c]pyridine-6-carboxylate], which IC50 is on record?
Its IC50 is 0.205 µM.

With `O=C(Nc1cc(-c2[nH]c3c(c2Nc2ccccc2)C(=O)COC3)ccn1)NC1CC1` [Example 55, 1-Cyclopropyl-3-{4-[4-oxo-3-(phenylamino)-1,4,5,7-tetrahydropyrano[3,4-b]pyrrol-2-yl]pyridin-2-yl}urea] as the compound, how does the IC50 read?
The IC50 was 0.098 µM.

Which IC50 does the source give for `O=C(Nc1cc(-c2[nH]c3c(c2Nc2ccccc2)C(=O)COC3)ccn1)c1ccc(F)cc1` [Example 52, 4-Fluoro-N-{4-[4-oxo-3-(phenylamino)-1,4,5,7-tetrahydropyrano[3,4-b]pyrrol-2-yl]pyridin-2-yl}benzamide] here?
Its IC50 is 0.01 µM.

With `CS(=O)(=O)CCNC(=O)N1CC(=O)c2c([nH]c(-c3ccncc3)c2Nc2ccccc2)C1` [Example 89, N-[2-(Methylsulfonyl)ethyl]-4-oxo-3-(phenylamino)-2-(pyridin-4-yl)-1,4,5,7-tetrahydro-6H-pyrrolo[2,3-c]pyridine-6-carboxamide] as the compound, how does the IC50 read?
The IC50 was 0.031 µM.

Which IC50 does the source give for `O=C1COCc2[nH]c(-c3ccncc3F)c(Nc3ccccc3)c21` [Example 33, 2-(3-Fluoropyridin-4-yl)-3-(phenylamino)-1,7-dihydropyrano[3,4-b]pyrrol-4(5H)-one] here?
The IC50 was 0.017 µM.

For `COC(=O)N1CC(=O)c2c([nH]c(-c3ccncc3OCC(F)F)c2Nc2ccccc2)C1` [Example 236, Methyl 2-[3-(2,2-difluoroethoxy)pyridin-4-yl]-4-oxo-3-(phenylamino)-1,4,5,7-tetrahydro-6H-pyrrolo[2,3-c]pyridine-6-carboxylate], which IC50 is on record?
Its IC50 is 0.016 µM.

How did the IC50 turn out when `CC(=O)Nc1cc(-c2[nH]c3c(c2Nc2ccccc2)C(=O)CN(S(=O)(=O)C(C)C)C3)ccn1` [Example 171, N-{4-[3-Anilino-6-(isopropylsulfonyl)-4-oxo-4,5,6,7-tetrahydro-1H-pyrrolo[2,3-c]pyridin-2-yl]pyridin-2-yl}acetamide] was run?
Its IC50 is 0.003 µM.

Which IC50 does the source give for `Cn1c2c(c(Nc3ccccc3)c1-c1ccncc1)C(=O)CN(S(C)(=O)=O)C2` [Example 64, 1-Methyl-6-(methylsulfonyl)-3-(phenylamino)-2-(pyridin-4-yl)-1,5,6,7-tetrahydro-4H-pyrrolo[2,3-c]pyridin-4-one] here?
Its IC50 is 1.4 µM.

With `O=C1COCc2[nH]c(-c3ccnc(NC(=O)C4CC4)c3)c(Nc3ccccc3)c21` [Example 35, N-{4-[4-Oxo-3-(phenylamino)-1,4,5,7-tetrahydropyrano[3,4-b]pyrrol-2-yl]pyridin-2-yl}cyclopropanecarboxamide] as the compound, how does the IC50 read?
Its IC50 is 0.055 µM.

How did the IC50 turn out when `O=C1CN(C(=O)c2ccncc2)Cc2[nH]c(-c3ccncc3)c(Nc3ccccc3)c21` [Example 63, 3-(phenylamino)-2-(pyridin-4-yl)-6-(pyridin-4-ylcarbonyl)-1,5,6,7-tetrahydro-4H-pyrrolo[2,3-c]pyridin-4-one] was run?
Its IC50 is 0.009 µM.

`CC(=O)Nc1cc(-c2[nH]c3c(c2Nc2ccccc2)C(=O)CN(S(=O)(=O)C2CCOCC2)C3)ccn1` [Example 173, N-{4-[3-Anilino-4-oxo-6-(tetrahydro-2H-pyran-4-ylsulfonyl)-4,5,6,7-tetrahydro-1H-pyrrolo[2,3-c]pyridin-2-yl]pyridin-2-yl}acetamide] was tested. Which IC50 did it give?
Its IC50 is 0.006 µM.

For `CC(=O)Nc1cc(-c2[nH]c3c(c2Nc2ccccc2)C(=O)CN(C(=O)N2CCN(C)CC2)C3)ccn1` [Example 127, N-(4-{3-Anilino-6-[(4-methylpiperazin-1-yl)carbonyl]-4-oxo-4,5,6,7-tetrahydro-1H-pyrrolo[2,3-c]pyridin-2-yl}pyridin-2-yl)acetamide], which IC50 is on record?
The IC50 was 0.029 µM.

`O=C1CN(S(=O)(=O)c2cnc[nH]2)Cc2[nH]c(-c3ccncc3)c(Nc3ccccc3)c21` [Example 72, 6-(1H-Imidazol-5-ylsulfonyl)-3-(phenylamino)-2-(pyridin-4-yl)-1,5,6,7-tetrahydro-4H-pyrrolo[2,3-c]pyridin-4-one] was tested. Which IC50 did it give?
Its IC50 is 0.007 µM.

`O=C(Nc1cc(-c2[nH]c3c(c2Nc2ccccc2)C(=O)COC3)ccn1)c1cnco1` [Example 50, N-{4-[4-Oxo-3-(phenylamino)-1,4,5,7-tetrahydropyrano[3,4-b]pyrrol-2-yl]pyridin-2-yl}-1,3-oxazole-5-carboxamide] was tested. Which IC50 did it give?
The IC50 was 0.026 µM.

For `COC(=O)N1CC(=O)c2c([nH]c(-c3ccncc3OCC3CC3)c2Nc2ccccc2)C1` [Example 250, Methyl 2-[3-(cyclopropylmethoxy)pyridin-4-yl]-4-oxo-3-(phenylamino)-1,4,5,7-tetrahydro-6H-pyrrolo[2,3-c]pyridine-6-carboxylate], which IC50 is on record?
The IC50 was 0.009 µM.

`Nc1cc(-c2[nH]c3c(c2Nc2ccccc2)C(=O)COC3)ccn1` [Example 22, 2-(2-Aminopyridin-4-yl)-3-(phenylamino)-1,7-dihydropyrano[3,4-b]pyrrol-4(5H)-one] was tested. Which IC50 did it give?
Its IC50 is 0.503 µM.

Which IC50 does the source give for `CC(C)S(=O)(=O)N1CC(=O)c2c([nH]c(-c3ccncc3OCC(F)F)c2Nc2ccccc2)C1` [Example 241, 2-[3-(2,2-Difluoroethoxy)pyridin-4-yl]-3-(phenylamino)-6-(propan-2-ylsulfonyl)-1,5,6,7-tetrahydro-4H-pyrrolo[2,3-c]pyridin-4-one] here?
The IC50 was 0.013 µM.

Which IC50 does the source give for `CC(C)OC(=O)N1CC(=O)c2c([nH]c(-c3ccnc(NC(=O)C4(F)CC4)c3)c2Nc2ccccc2)C1` [Example 159, Isopropyl 3-anilino-2-{2-([(1-fluorocyclopropyl)carbonyl]amino}pyridin-4-yl)-4-oxo-1,4,5,7-tetrahydro-6H-pyrrolo[2,3-c]pyridine-6-carboxylate] here?
Its IC50 is 0.022 µM.

For `COc1cnccc1-c1[nH]c2c(c1Nc1ccccc1)C(=O)CN(S(=O)(=O)CCC(F)(F)F)C2` [Example 111, 2-(3-Methoxypyridin-4-yl)-3-(phenylamino)-6-[(3,3,3-trifluoropropyl)sulfonyl]-1,5,6,7-tetrahydro-4H-pyrrolo[2,3-c]pyridin-4-one], which IC50 is on record?
Its IC50 is 0.007 µM.

How did the IC50 turn out when `CCNC(=O)N1CC(=O)c2c([nH]c(-c3ccnc(C)n3)c2Nc2ccccc2)C1` [Example 25, N-Ethyl-2-(2-methylpyrimidin-4-yl)-4-oxo-3-(phenylamino)-1,4,5,7-tetrahydro-6H-pyrrolo[2,3-c]pyridine-6-carboxamide] was run?
Its IC50 is 0.254 µM.

`CC(C)(C)OC(=O)N1CC(=O)c2c([nH]c(-c3ccncc3OCC3CC3)c2Nc2ccccc2)C1` [Example 223, tert-Butyl 3-anilino-2-[3-(cyclopropylmethoxy)pyridin-4-yl]-4-oxo-1,4,5,7-tetrahydro-6H-pyrrolo[2,3-c]pyridine-6-carboxylate] was tested. Which IC50 did it give?
The IC50 was 0.014 µM.

For `COc1cc(C(=O)Nc2cc(-c3[nH]c4c(c3Nc3ccccc3)C(=O)COC4)ccn2)ccc1F` [Example 140, N-[4-(3-Anilino-4-oxo-1,4,5,7-tetrahydropyrano[3,4-b]pyrrol-2-yl)pyridin-2-yl]-4-fluoro-3-methoxybenzamide], which IC50 is on record?
The IC50 was 0.031 µM.
